{"source": "patent US20240350469A1", "about": "“TREATMENT OF LOWER RESPIRATORY TRACT INFECTION WITH TRADIPITANT” (Vanda Pharmaceuticals Inc., priority 2021, published 2024)", "test_system": "severe or critical COVID-19 infection", "assay": "Randomized, double-blind, placebo-controlled study of tradipitant in hospitalized patients with COVID-19 pneumonia (interim analysis, ITT)", "assay_type": "in vivo", "conditions": "ITT; for Hazard ratio (95% CI), responder as improvement of 2 or more points: tradipitant vs placebo, Cox model, >1 benefit for tradipitant", "key": {"[1]": {"conditions": "Day 7, ordinal score at baseline 2, tradipitant N = 4"}, "[2]": {"conditions": "Day 7, ordinal score at baseline 3, tradipitant N = 13"}, "[3]": {"conditions": "Day 7, ordinal score at baseline 4, tradipitant N = 9"}, "[4]": {"conditions": "Day 7, overall, tradipitant N = 28"}, "[5]": {"conditions": "Day 28, ordinal score at baseline 2, tradipitant N = 4"}, "[6]": {"conditions": "Day 28, ordinal score at baseline 3, tradipitant N = 13"}, "[7]": {"conditions": "Day 28, ordinal score at baseline 4, tradipitant N = 9"}, "[8]": {"conditions": "Day 28, overall, tradipitant N = 28"}, "[9]": {"conditions": "ordinal score at baseline 2, tradipitant N = 4"}, "[10]": {"conditions": "ordinal score at baseline 3, tradipitant N = 13"}}, "data": [{"smiles": "O=C(c1ccccc1Cl)c1cccnc1-c1nnn(Cc2cc(C(F)(F)F)cc(C(F)(F)F)c2)c1-c1ccncc1", "note": "[Tradipitant]", "values": [{"measurement": "Median time to responder", "setting": "[1]", "value": 4, "unit": "days"}, {"measurement": "Mortality, KM estimate", "setting": "[1]", "value": 25.0, "unit": "%"}, {"measurement": "No. of responders (improvement of 2 or more points on 7 point ordinal scale)", "setting": "[1]", "value": 3}, {"measurement": "Mortality, KM estimate", "setting": "[2]", "value": 0.0, "unit": "%"}, {"measurement": "No. of responders (improvement of 2 or more points on 7 point ordinal scale)", "setting": "[2]", "value": 2}, {"measurement": "Median time to responder", "setting": "[3]", "value": 4, "unit": "days"}, {"measurement": "Mortality, KM estimate", "setting": "[3]", "value": 25.0, "unit": "%"}, {"measurement": "No. of responders (improvement of 2 or more points on 7 point ordinal scale)", "setting": "[3]", "value": 6}, {"measurement": "Mortality, KM estimate", "setting": "[4]", "value": 9.8, "unit": "%"}, {"measurement": "No. of responders (improvement of 2 or more points on 7 point ordinal scale)", "setting": "[4]", "value": 13}, {"measurement": "Hazard ratio (95% CI), responder as improvement of 2 or more points", "setting": "Day 7, overall", "value": 2.55}, {"measurement": "Median time to responder", "setting": "[5]", "value": 4, "unit": "days"}, {"measurement": "Mortality, KM estimate", "setting": "[5]", "value": 50.0, "unit": "%"}, {"measurement": "No. of responders (improvement of 2 or more points on 7 point ordinal scale)", "setting": "[5]", "value": 3}, {"measurement": "Median time to responder", "setting": "[6]", "value": 27, "unit": "days"}, {"measurement": "Mortality, KM estimate", "setting": "[6]", "value": 9.1, "unit": "%"}, {"measurement": "No. of responders (improvement of 2 or more points on 7 point ordinal scale)", "setting": "[6]", "value": 4}, {"measurement": "Median time to responder", "setting": "[7]", "value": 4, "unit": "days"}, {"measurement": "Mortality, KM estimate", "setting": "[7]", "value": 25.0, "unit": "%"}, {"measurement": "No. of responders (improvement of 2 or more points on 7 point ordinal scale)", "setting": "[7]", "value": 7}, {"measurement": "Median time to responder", "setting": "[8]", "value": 10, "unit": "days"}, {"measurement": "Mortality, KM estimate", "setting": "[8]", "value": 20.4, "unit": "%"}, {"measurement": "No. of responders (improvement of 2 or more points on 7 point ordinal scale)", "setting": "[8]", "value": 16}, {"measurement": "Hazard ratio (95% CI), responder as improvement of 2 or more points", "setting": "Day 28, overall", "value": 1.55}, {"measurement": "No. of deaths by day 7", "setting": "[9]", "value": 1}, {"measurement": "No. of deaths by day 28", "setting": "[9]", "value": 2}, {"measurement": "Ordinal Score at Day 7 = 1 (Death), % of patients", "setting": "[9]", "value": "(25.0) %"}, {"measurement": "Ordinal Score at Day 7 = 1 (Death), no. of patients", "setting": "[9]", "value": 1}, {"measurement": "Ordinal Score at Day 7 = 2 (Hospitalized, on invasive mechanical ventilation or ECMO), % of patients", "setting": "[9]", "value": "(25.0) %"}, {"measurement": "Ordinal Score at Day 7 = 2 (Hospitalized, on invasive mechanical ventilation or ECMO), no. of patients", "setting": "[9]", "value": 1}, {"measurement": "Ordinal Score at Day 7 = 3 (Hospitalized, on non-invasive ventilation or high flow oxygen devices), % of patients", "setting": "[9]", "value": "(0.0) %"}, {"measurement": "Ordinal Score at Day 7 = 3 (Hospitalized, on non-invasive ventilation or high flow oxygen devices), no. of patients", "setting": "[9]", "value": 0}, {"measurement": "Ordinal Score at Day 7 = 4 (Hospitalized, requiring supplemental oxygen), % of patients", "setting": "[9]", "value": "(25.0) %"}, {"measurement": "Ordinal Score at Day 7 = 4 (Hospitalized, requiring supplemental oxygen), no. of patients", "setting": "[9]", "value": 1}, {"measurement": "Ordinal Score at Day 7 = 5 (Hospitalized, not requiring supplemental oxygen), % of patients", "setting": "[9]", "value": "(25.0) %"}, {"measurement": "Ordinal Score at Day 7 = 5 (Hospitalized, not requiring supplemental oxygen), no. of patients", "setting": "[9]", "value": 1}, {"measurement": "Ordinal Score at Day 7 = 7 (Not hospitalized), % of patients", "setting": "[9]", "value": "(0.0) %"}, {"measurement": "Ordinal Score at Day 7 = 7 (Not hospitalized), no. of patients", "setting": "[9]", "value": 0}, {"measurement": "Ordinal Score at Day 28 = 1 (Death), % of patients", "setting": "[9]", "value": "(50.0) %"}, {"measurement": "Ordinal Score at Day 28 = 1 (Death), no. of patients", "setting": "[9]", "value": 2}, {"measurement": "Ordinal Score at Day 28 = 2 (Hospitalized, on invasive mechanical ventilation or ECMO), % of patients", "setting": "[9]", "value": "(0.0) %"}, {"measurement": "Ordinal Score at Day 28 = 2 (Hospitalized, on invasive mechanical ventilation or ECMO), no. of patients", "setting": "[9]", "value": 0}, {"measurement": "Ordinal Score at Day 28 = 3 (Hospitalized, on non-invasive ventilation or high flow oxygen devices), % of patients", "setting": "[9]", "value": "(0.0) %"}, {"measurement": "Ordinal Score at Day 28 = 3 (Hospitalized, on non-invasive ventilation or high flow oxygen devices), no. of patients", "setting": "[9]", "value": 0}, {"measurement": "Ordinal Score at Day 28 = 4 (Hospitalized, requiring supplemental oxygen), % of patients", "setting": "[9]", "value": "(0.0) %"}, {"measurement": "Ordinal Score at Day 28 = 4 (Hospitalized, requiring supplemental oxygen), no. of patients", "setting": "[9]", "value": 0}, {"measurement": "Ordinal Score at Day 28 = 7 (Not hospitalized), % of patients", "setting": "[9]", "value": "(50.0) %"}, {"measurement": "Ordinal Score at Day 28 = 7 (Not hospitalized), no. of patients", "setting": "[9]", "value": 2}, {"measurement": "No. of deaths by day 7", "setting": "[10]", "value": 0}, {"measurement": "No. of deaths by day 28", "setting": "[10]", "value": 1}, {"measurement": "Ordinal Score at Day 7 = 1 (Death), % of patients", "setting": "[10]", "value": "(0.0) %"}, {"measurement": "Ordinal Score at Day 7 = 1 (Death), no. of patients", "setting": "[10]", "value": 0}, {"measurement": "Ordinal Score at Day 7 = 2 (Hospitalized, on invasive mechanical ventilation or ECMO), % of patients", "setting": "[10]", "value": "(61.5) %"}, {"measurement": "Ordinal Score at Day 7 = 2 (Hospitalized, on invasive mechanical ventilation or ECMO), no. of patients", "setting": "[10]", "value": 8}, {"measurement": "Ordinal Score at Day 7 = 3 (Hospitalized, on non-invasive ventilation or high flow oxygen devices), % of patients", "setting": "[10]", "value": "(23.1) %"}, {"measurement": "Ordinal Score at Day 7 = 3 (Hospitalized, on non-invasive ventilation or high flow oxygen devices), no. of patients", "setting": "[10]", "value": 3}, {"measurement": "Ordinal Score at Day 7 = 4 (Hospitalized, requiring supplemental oxygen), % of patients", "setting": "[10]", "value": "(0.0) %"}, {"measurement": "Ordinal Score at Day 7 = 4 (Hospitalized, requiring supplemental oxygen), no. of patients", "setting": "[10]", "value": 0}, {"measurement": "Ordinal Score at Day 7 = 5 (Hospitalized, not requiring supplemental oxygen), % of patients", "setting": "[10]", "value": "(7.7) %"}, {"measurement": "Ordinal Score at Day 7 = 5 (Hospitalized, not requiring supplemental oxygen), no. of patients", "setting": "[10]", "value": 1}, {"measurement": "Ordinal Score at Day 7 = 7 (Not hospitalized), % of patients", "setting": "[10]", "value": "(7.7) %"}]}]}
